Each block holds one compound with its values, some of them ahead of it. Square brackets hold non-standard residues; d marks the D form. Ends that are not written are not given here.
What was measured:
[1] = Preliminary toxicology studies
[2] = rat, in vivo, inhaled or intranasal
[3] = rat
neuroblastoma cell = details: buthionine sulfoximine induced; cited from earlier work
C57-B16J mice = test: Morris water maze in male offspring after prenatal treatment of pregnant mice; format: in vivo, mouse; details: vs vehicle; for Latency to find the hidden platform, prenatal oral single peptide 40 μg: gavage on pregnancy day 8, 40 μg
Experimental: C57-B16J female mice (Jackson Labs) were kept under a 12 h light, 12 h dark regimen with food and water available at all times. The mice received humane animal care in compliance with the “Guideline for Care and Use of Experimental Animals.” Six week old females (21-24 grams) were mated with C57-B16J males for 4 h. The presence of a vaginal plug was considered day 0 pregnancy.
Animals were injected intraperitoneally on pregnancy day 8, or treated on pregnancy day 8 after 1 hour fast with gavage dose of ADNF polypeptides. NAP was diluted in 50 μl DMSO and diluted in filtered Dulbecco 's phosphate buffered saline (DPBS). SAL was dissolved and diluted in filtered DPBS. Control animals were treated with a vehicle (i.e., DPBS). All treatments were coded.
Delivery occurred on day 20, weaning on day 20 of life. Male offspring were eartagged with all identifying markers of coded treatments removed.
Only male mice were used for the water maze trials. Testing of mice began at 35-50 days, typically on day 38, twice daily (two trials) for 7 days.
Morris water maze test used is adapted from “repeated acquisition of a spatial navigation task in mice: Effects of spacing of trials and of unilateral middle cerebral artery occlusion” Klapdor & Van der Staay, Physiology & Behav. 63(5):903-909 (1998). A trial consists of attempting to find the hidden platform from 4 set points. Specifically, testing of mice began in the mornings, typically between 9 and 9:30. Consistent timing is important to any behavioral study. Testing of mice was performed in a random order to prevent chronological bias by the researcher. Maze was set up the day before, to allow water time to adjust to room temperature. 100-150 ml of non-toxic white tempura is added and mixed. […]
On days 2-7, mice are only given 15 seconds on the platform before the initial trial. […] The daily average escape latency is calculated and plotted along the 7 day period for test administration. […]

[4] = Biodistribution and intactness of [3H]-NAP following intranasal administration
AF64A-treated rats [5] = test: Water maze (two daily tests, hidden platform) in AF64A cholinotoxicity rats, intranasal peptide; format: in vivo, rat; details: 1 μg peptide intranasal daily, vs AF64A-vehicle
Experimental: Rats were subjected to two daily tests in a water maze, including a hidden platform (Morris, R., J. Neurosci. Methods 11:47-60 (1984); Gordon et al., Neurosci. Lett. 199:1-4 (1995); Gozes et al., J Neurobiol. 33:329-342. (1997a)). Every day for the first test, both the platform and the animal were situated in a new location with regards to the pool (with the pool being immobile).
The experiment was performed as follows: the animal was positioned on the platform for 0.5 min., then placed in the water. The time required to reach the platform (indicative of learning and intact reference memory) was measured (first test). […] The time required to reach the platform in the second trial was recorded, indicative of short-term (working) memory. […]
After a week of peptide treatment, the animals were subjected to two daily tests in the water maze (as above). […] To avoid bias related to changes in motor activity in the various treatment groups, a probe trial test that assessed spatial memory was also utilized as follows. After four days of training and testing, the platform was removed and on day 5 the animals were subjected to swimming in the pool (120 sec) without the platform; in these experiments, the time spent in the quadrant of the pool where the platform used to be was recorded. […]

AF64A-treated rats [6] = test: Probe trial (platform removed, time in platform quadrant) in rats; format: in vivo, rat; details: AF64A-treated rats given peptide intranasally vs AF64A-vehicle, 120 sec swim, p<0.001
Text: After a week of peptide treatment, the animals were subjected to two daily tests in the water maze (as above). During the test-period, animals were also given an intranasal administration of peptide or vehicle (carrier) an hour before the daily tests. To avoid bias related to changes in motor activity in the various treatment groups, a probe trial test that assessed spatial memory was also utilized as follows. After four days of training and testing, the platform was removed and on day 5 the animals were subjected to swimming in the pool (120 sec) without the platform; in these experiments, the time spent in the quadrant of the pool where the platform used to be was recorded. Measurements were performed using the HVS video tracking system (HVS Image Ltd. Hampton, UK).

[7] = system: apolipoprotein E-deficient mice; details: injection to newborn mice, short-term memory in three-week-old pups; cited from earlier work
[8] = storage at temperatures <4° C.; cited from earlier work

half-life [2]: ~15 min
Fraction of material intact in the brain, 30 min ([3]; in vivo): at least 12%
Total material eluted from the HPLC column, cortex, 30 min ([3]; in vivo): 807.8 fmole/g tissue
Total material eluted from the HPLC column, cortex, 60 min ([3]; in vivo): 1198.9 fmoles/g tissue
Compound: CC[C@H](C)[C@H](NC(=O)[C@H](CO)NC(=O)[C@@H](NC(=O)[C@@H]1CCCN1C(=O)[C@H](C)NC(=O)[C@@H](N)CC(N)=O)C(C)C)C(=O)N1CCC[C@H]1C(=O)N[C@@H](CCC(N)=O)C(=O)O [NAP, Asn-Ala-Pro-Val-Ser-Ile-Pro-Gln]
Toxic effects [1]: no toxic effects
In vivo metabolism by HPLC analysis [3]: metabolized in vivo to multiple fragments

Compound: CCCCS(=N)(=O)CCC(N)C(=O)O (stereo not drawn) [buthionine sulfoximine, Buthionine sulfoximine]
Decrease in neuroblastoma cell viability (neuroblastoma cell): 70-90%

Compound: D-NAP: NAP (NAPVSIPQ) made of D-amino acids, for oral administration
Latency to find the hidden platform, prenatal oral single peptide 40 μg (C57-B16J mice): trend of faster latencies

Compound: D-SAL: SAL (SALLRSIPA) made of D-amino acids, for oral administration ([dS][dA][dL][dL][dR][dS][dI][dP][dA])
Latency to find the hidden platform, prenatal oral single peptide 40 μg (C57-B16J mice): trend of faster latencies
Latency to find the hidden platform, prenatal oral double dose 80 μg (C57-B16J mice; gavage on pregnancy day 8, 80 μg): perform similarly to the control animals

Time of highest total radioactivity in the brain (cortex) ([4]; following intranasal administration): 60 min
Radioactivity found (calculated as NAP per g tissue) ([4]; intranasal 22.75 pmole per rat, compared with 91 fmoles/g assumed for homogeneous distribution): 45 fmoles/g tissue
Organ distribution of total radioactivity ([4]; intranasal [3H]-NAP, thirty minutes after administration): highest levels in the intestine
Compound: NAP, propyl 3-3,4-[^3H] [[^3H]-NAP]

Compound: SALLRSIPA [ADNF-9]
Latency to reach the hidden platform, first daily test (reference memory) (AF64A-treated rats [5]; NAP difference on fourth day of testing (p<0.041)): apparent insignificant improvement
Latency to reach the hidden platform, second daily test (short-term memory) (AF64A-treated rats [5]; p<0.001): significant improvements and reduced latencies
Time spent in the quadrant of the pool where the platform was previously positioned (probe trial, day 5) (AF64A-treated rats [6]): significantly increased
Amelioration/prevention of memory deficits in apolipoprotein E-deficient mice [7]: less effective than NAP
Biological activity of PBS solutions upon storage [8]: lost biological activity

From patent publication US7427598B2, “Post-natal administration of activity-dependent neurotrophic factor-derived polypeptides for enhancing learning and memory” (The United States of Americas as represented by the …, priority 2001, dated 2008)
